System: Staphylococcus carnosus
Experiment: antimicrobial activity assay (viable bacteria, CFU/ml)
Assay type: cell-based
Conditions: synthetic peptide standard curve; 37° C. for 1.5 hr
Protocol: The antimicrobial activity assay employed Escherichia coli and Staphylococcus carnosus and is a modification of the protocol described by Porter and coworkers (Porter, E. M., et al., Infect Immun, 1997. 65(6): p. 2396-401). Briefly, gram-positive or gram-negative bacteria are grown overnight. The following day the test organisms are subcultured for 2.5 hr and working dilutions of 10^4 bacteria/ml for Escherichia coli or 10^5 bacteria/ml of Staphylococcus carnosus in 10 mM sodium phosphate (pH 7.4)-1% TSB are created. All the reactions mix 50 μl of experimental reagent (lysis, supernatants or purified protein) with 50 μl of bacterial suspension. These reactions are then incubated at 37° C. for 1.5 hr. The reactions are diluted 100-fold in 10 mM sodium phosphate (pH 7.4)-1% TSB and plated on TSB plates using a spiral plater (Spiral Biotech, Norwood, Mass.). The plates are then incubated for 12 to 16 hr at 37° C. Colonies on these plates are counted and the number of viable bacteria is determined and expressed as colony forming units per milliliter (CFU/ml).
This example describes the development of an assay to detect LL-37 antimicrobial activity. […] A standard curve for the antimicrobial activity of LL-37 was determined for gram-positive bacteria, S. carnosus using this synthetic peptide.

With `CC[C@H](C)[C@H](NC(=O)[C@H](CCCCN)NC(=O)[C@H](CCC(=O)O)NC(=O)[C@H](CCCCN)NC(=O)[C@H](CO)NC(=O)[C@H](CCCCN)NC(=O)[C@H](CCCNC(=N)N)NC(=O)[C@H](Cc1ccccc1)NC(=O)[C@H](Cc1ccccc1)NC(=O)[C@H](CC(=O)O)NC(=O)CNC(=O)[C@H](CC(C)C)NC(=O)[C@@H](N)CC(C)C)C(=O)NCC(=O)N[C@@H](CCCCN)C(=O)N[C@@H](CCC(=O)O)C(=O)N[C@@H](Cc1ccccc1)C(=O)N[C@@H](CCCCN)C(=O)N[C@@H](CCCNC(=N)N)C(=O)N[C@H](C(=O)N[C@H](C(=O)N[C@@H](CCC(N)=O)C(=O)N[C@@H](CCCNC(=N)N)C(=O)N[C@H](C(=O)N[C@@H](CCCCN)C(=O)N[C@@H](CC(=O)O)C(=O)N[C@@H](Cc1ccccc1)C(=O)N[C@@H](CC(C)C)C(=O)N[C@@H](CCCNC(=N)N)C(=O)N[C@@H](CC(N)=O)C(=O)N[C@@H](CC(C)C)C(=O)N[C@H](C(=O)N1CCC[C@H]1C(=O)N[C@@H](CCCNC(=N)N)C(=O)N[C@H](C(=O)N[C@@H](CCC(=O)O)C(=O)N[C@@H](CO)C(=O)O)[C@@H](C)O)C(C)C)[C@@H](C)CC)C(C)C)[C@@H](C)CC` [LL-37] the “concentration necessary to kill 50% (LC50) of S. carnosus” value was 0.9 µg/mL.

Reference: patent publication US10918768B2, “Human skin equivalents expressing exogenous polypeptides” (Stratatech Corporation, priority 2003, dated 2021)
